{"source": "patent US10471005B2", "about": "“Low dose pharmaceutical composition” (TORRENT PHARMACEUTICALS LIMITED, priority 2013, dated 2019)", "key": {"[1]": {"experiment": "Pharmacokinetic evaluation in TNBS induced colitis model (plasma levels, LC-MS/MS)", "type": "in vivo, male BALB/c mice", "settings": "TNBS colitis mice; for Cmax / AUC: male, BALB/c, mouse, 1 mg/kg twice a day, after fifth dose, plasma; for AUC: read-out: AUC0—12", "protocol": "(§1) Animal with TNBS (2,4,6 trinitrobenzene sulfonic acid) induced colitis is an established model for IBD. Male BALB/c mice were kept for 16 hours fasting and were administered 0.1 ml TNBS solution (containing 1.5 mg of TNBS in 50% ethanol) rectally 4 cm inside the anus with the help of flexible polyethylene catheter under isoflurane anesthesia. Immediately after TNBS administration, mice were held vertically in a head-down position for an additional 45-60 sec to ensure retention and distribution of TNBS solution within the colon of animal. (Fiorucci et al, Immunity, 2002; Vol. 17; 769-780)\nPharmaceutical composition comprising compound A was administered to mice with TNBS induced colitis (as developed according to example 3) at the dose of 1 mg/kg of compound A twice a day, at 10 ml/kg dosing volume by intraperitoneal route and peroral route. Dosing was initiated a day prior to induction (day −1) of TNBS colitis. Blood samples of treated animals were collected before administration of fifth dose (0 min) and at various time points after fifth dose administration. Blood samples were centrifuged within one hour of collection at 4000 rpm for 10 min at 4° C. and plasma was separated. These plasma samples were analyzed for compound A levels using LC-MS/MS method. Pharmacokinetic parameters of the compound A were calculated by non-compartmental analysis method using Phoenix WinNolin version 6.2."}, "TNBS induced colitis": {"tested_on": "TNBS induced colitis", "experiment": "Effectiveness in TNBS induced colitis model", "type": "in vivo, male BALB/c mice", "protocol": "as §1\nPharmaceutical composition comprising compound A was administered orally to mice with TNBS induced colitis (as developed according to example 3) at the dose of 1 mg/kg of compound A twice a day, at 10 ml/kg dosing volume. Dosing was initiated a day prior to induction (day −1) of TNBS colitis. Treatment related attenuation in body weight loss, improved disease activity index (DAI, a composite score ranging from 0 to maximum 12 considering the loss in body weight, fecal consistency and presence or absence of occult blood in feces), healthier colon (macroscopy score) and rate of survival were established in the 6 days treated animals (from day −1 to day 4) to check efficacy of compound A. Body weights were monitored daily, DAI was captured on day 2 and day 4 whereas colonic damage (macroscopy score and histopathological score) was scored based on extent of colonic damage. Histopathological evaluation of colonic damage was performed in formalin fixed colon tissue sections, stained with hematoxylin and eosin, at 10× magnification using Leica® DM2500 microscope, after study completion. (*p<0.05 vs placebo/vehicle {composition without compound A}), FIG. 5 and FIG. 8.\nSimilar to procedures given above in Example 5, pharmaceutical composition of compound A was administered, twice a day, in mice with TNBS induced colitis through intraperitoneal route and oral route. Treated animals were analyzed for improved disease activity index and healthier colon (macroscopy score)."}, "DSS induced colitis": {"tested_on": "DSS induced colitis", "experiment": "Effectiveness in DSS induced colitis model", "type": "in vivo, female BALB/c mice", "settings": "1 and 2.5 mg/kg bid oral, day 5 to day 14, vs placebo (5% DSS)", "protocol": "5% DSS (MW-36000-50000) dissolved in drinking water was provided to female BALB/c mice for 11 days (Gunther et al, The Journal of Pharmacology and Experimental Therapeutics, 1999; Vol. 292, No. 1; 22-30) followed by DSS free period till day 14. Pharmaceutical composition comprising compound A was administered to these animals from day 5 to day 14 at the dose of 1 and 2.5 mg/kg of compound A twice a day, at 10 ml/kg dosing volume by oral route (PO). Placebo group was given similar composition without compound A. Placebo (composition without compound A) was also administered to healthy animals, which were given only drinking water and represented as placebo (water). Treatment related attenuation in body weight loss, improved disease activity index (DAI, a composite score ranging from 0 to maximum 12 considering the loss in body weight, fecal consistency and presence or absence of occult blood in feces) and colon histopathology (Score) were established in 10 days treated animals (from day 5 to day 14) to check efficacy of compound A. Body weights were monitored daily, DAI was captured every alternate day whereas histopathological evaluation of colonic damage was performed in formalin fixed colon tissue after study completion, similar to example 5. (*p<0.05 vs placebo (5% DSS)) and FIG. 4."}, "[2]": {"experiment": "Excretion of compound A in feces, DSS induced colitis model", "type": "in vivo, female BALB/c mice", "settings": "for dose excreted: female, BALB/c, mouse, feces, po", "protocol": "5% DSS (MW-36000-50000) dissolved in drinking water was provided to female BALB/c mice throughout the study duration of 9 days. Single administration of pharmaceutical composition comprising compound A at the dose of 1 mg/kg of compound A, at 10 ml/kg dosing volume was performed orally on day 5. Feces were collected for 96 hours post administration of the composition. Feces collected was analyzed for compound A levels using LC-MS/MS method."}, "HSP70": {"tested_on": "HSP70", "experiment": "HSP70 expression in colon, DSS model of colitis (immunoblotting)", "type": "in vivo, female BALB/c mice", "settings": "single oral 2.5 mg/kg, six hours after administration, vs placebo", "protocol": "Effect of oral administration of pharmaceutical composition of compound A on expression of HSP70 was checked in DSS model of colitis.\n5% DSS (MW-36000-50000) dissolved in drinking water was provided to female BALB/c mice for 5 days. Single dose of compound A was administered to these animals on day 5. Composition comprising compound A was administered at the dose of 2.5 mg/kg, at 10 ml/kg dosing volume by oral route (PO). Placebo group was given similar composition without compound A. Six hours after administration, animals were sacrificed and colon were processed for whole tissue extract preparation. Proteins were separated on SDS-PAGE followed by immunoblotting, employing HSP70 antibody."}, "TNF-α": {"tested_on": "TNF-α", "experiment": "Inflammatory marker mRNA expression in colon, DSS model: TNF-α", "type": "in vivo, female BALB/c mice", "settings": "2.5 mg/kg bid oral day 5 to day 14, relative to placebo", "protocol": "(§2) Effect of oral administration of pharmaceutical composition of compound A on expression of interleukin (IL)-10, TNF-α, and interferon (INF)-γ mRNA was assessed in DSS model of colitis.\n(§3) Pharmaceutical composition comprising compound A was administered 2.5 mg/kg twice a day from day 5 to day 14 to DSS induced colitis mice (as developed according to example 7) by oral route (PO). Animals were sacrificed on day 14 and colon were processed for whole tissue extract preparation. Expression of interleukin (IL)-10, TNF-α, and interferon (INF)-γ mRNA along with expression of 18S rRNA was monitored employing gene specific primer and probes (Applied Biosystems, Foster City, Calif., USA) by quantitative real-time polymerase chain reaction on ABI 7900 HT (Applied Biosystems, Foster City, Calif., USA). mRNA expression was normalized relative to the expression of 18S rRNA. Placebo group was given similar composition without compound A. The results, as given in FIG. 7, were expressed as fold induction relative to placebo (composition without compound A)."}, "interferon (INF)-γ": {"tested_on": "interferon (INF)-γ", "experiment": "Inflammatory marker mRNA expression in colon, DSS model: INF-γ", "type": "in vivo, female BALB/c mice", "settings": "2.5 mg/kg bid oral day 5 to day 14, relative to placebo", "protocol": "as §2, §3"}, "interleukin (IL)-10": {"tested_on": "interleukin (IL)-10", "experiment": "Inflammatory marker mRNA expression in colon, DSS model: IL-10", "type": "in vivo, female BALB/c mice", "settings": "2.5 mg/kg bid oral day 5 to day 14, relative to placebo", "protocol": "as §2, §3"}, "[3]": {"tested_on": "ischemic acute kidney injury (AKI)", "settings": "administered intraperitoneally; cited from earlier work"}, "[4]": {"settings": "1 mg/kg bid oral, 6 days, vs placebo"}, "[5]": {"settings": "single oral 1 mg/kg, feces collected 96 hours, individual animals, 1 mg/kg"}}, "note": "Where “and” joins values, the source holds several entries; their conditions need not be identical. Equal values may be shown once. Read-outs that look alike come from different tables or passages of the source."}
{"smiles": "O=C(O)CNC(=O)c1c(O)nc2sc3c(n2c1=O)CCCCC3", "note": "[compound A, [(2-hydroxy-4-oxo-6,7,8,9-tetrahydro-4H,5H-10-thia-1,4a-diaza-benzo[a]azulene-3-carbonyl)-amino]-acetic acid]", "values": [{"measurement": "Systemic concentration, oral compared to IP administration", "setting": "[1]; equal dose", "result": "significantly lower systemic concentration"}, {"measurement": "Cmax", "setting": "[1]; ip, Intraperitoneal", "result": 399, "unit": "ng/mL"}, {"measurement": "AUC", "setting": "[1]; ip, Intraperitoneal", "result": 256, "unit": "ng·h/mL"}, {"measurement": "Cmax", "setting": "[1]; Per Oral", "result": 13.2, "unit": "ng/mL"}, {"measurement": "AUC", "setting": "[1]; Per Oral", "result": 63.1, "unit": "ng·h/mL"}, {"measurement": "Disease activity index (DAI)", "setting": "TNBS induced colitis; [4]", "result": "improving the disease activity index"}, {"measurement": "Extent of colon damage (macroscopy, histopathology)", "setting": "TNBS induced colitis; [4]", "result": "attenuating the extent of colon damage"}, {"measurement": "Rate of weight loss", "setting": "TNBS induced colitis; [4]", "result": "reducing rate of weight loss"}, {"measurement": "Survival rate", "setting": "TNBS induced colitis; [4]", "result": "improving survival rate"}, {"measurement": "Therapeutic efficacy (DAI, macroscopy score), oral compared to IP administration", "setting": "TNBS induced colitis; twice a day, oral even at lower doses", "result": "better therapeutic efficacy as compared to IP administration"}, {"measurement": "Disease activity index (DAI)", "setting": "DSS induced colitis", "result": "improving the disease activity index"}, {"measurement": "Extent of colon damage (colitis score)", "setting": "DSS induced colitis", "result": "attenuating extent of colon damage"}, {"measurement": "Rate of weight loss", "setting": "DSS induced colitis", "result": "reducing the rate of weight loss"}, {"measurement": "Tissue architecture (colon histopathology)", "setting": "DSS induced colitis", "result": "preserving tissue architecture"}, {"measurement": "dose excreted", "setting": "[2]; 1 mg/kg, single oral 1 mg/kg, feces collected 96 hours, individual animals, read-out: % Recovery in feces", "result": 63.9, "unit": "%"}, {"measurement": "dose excreted", "setting": "[2]; 1 mg/kg, single oral 1 mg/kg, feces collected 96 hours, mean of 5 animals, read-out: Mean % Recovery in feces", "result": 58.7, "unit": "%"}, {"measurement": "Compound A recovered from feces", "setting": "[2]; oral composition, diseased animals", "result": "more than 50%"}, {"measurement": "% Recovery in feces", "setting": "[2]; [5]", "result": "62.35% and 52.66% and 50.88% and 63.60%"}, {"measurement": "Total amount of compound A in feces", "setting": "[2]; [5]", "result": "15.34 µg and 13.71 µg and 12.63 µg and 12.71 µg and 12.08 µg"}, {"measurement": "HSP70 protein expression in colon", "setting": "HSP70", "result": "pronounced induction"}, {"measurement": "TNFα mRNA expression in colon", "setting": "TNF-α", "result": "reduction"}, {"measurement": "INFγ mRNA expression in colon", "setting": "interferon (INF)-γ", "result": "reduction"}, {"measurement": "IL-10 mRNA expression in colon", "setting": "interleukin (IL)-10", "result": "elevation"}, {"measurement": "Effectiveness in ischemic acute kidney injury (AKI)", "setting": "[3]", "result": "effective"}]}
